Results reported in patent US8048440B2, “Thermoplastic fluoropolymer-coated medical devices” (Gore Enterprise Holdings, Inc., priority 2002, dated 2011).
Structures can show the parent of a compound that is named as a salt.

Assay: release of chlorhexidine dihydrochloride from the pocketed TFE/PMVE film composite in PBS, with needle puncture
Assay type: physicochemical
Details: 1 cm by 1 cm composite in PBS at 37° C., punctured with 16-gauge needle
Description: A polypropylene template with 0.7 mm diameter holes arranged in a rectangle pattern was made to facilitate manufacturing of the device. The holes were evenly spaced approximately 2 mm apart, from edge to edge. This template was placed on top of one of the TFE/PMVE extruded sheets, then dusted with chlorhexidine dihydrochloride. The template was removed, leaving a dot-matrix pattern of the drug on the surface of the extruded film. A second sheet of extruded polymer was gently placed on top of the first sheet. The composite of polymer sheets and drug was wrapped in aluminum foil, placed between two metal plates, heated in an oven set at 115° C. for 15 minutes, removed from the oven, immediately pressed between the two hot metal plates for 15 minutes, and then removed from the metal plates and aluminum foil. This process created encapsulated drug pockets between the polymer films. An approximately 1 cm by 1 cm square of finished material was placed into phosphate buffered saline (PBS) at 37° C., periodically sampled for antimicrobial content, and punctured with a 16-gauge needle. The release of the chlorhexidine dihydrochloride as a function of puncturing the composite and time in solution is shown in FIG. 7C. […] Thus, an additional dose of the drug can be delivered on demand as a consequence of puncturing drug pockets.

For [H]/N=C(\N/C(=N/[H])NCCCCCCNC(=N)NC(=N)Nc1ccc(Cl)cc1)Nc1ccc(Cl)cc1 [chlorhexidine dihydrochloride], the “release of chlorhexidine dihydrochloride as a function of puncturing and time in solution” value was “continuously released at a minimal level until the composite was punctured with the needle”.
